Measurements from patent publication US11478451B1, “Macrocyclic chlorine substituted indole derivatives” (Bayer Aktiengesellschaft, priority 2017, dated 2022).
Where two headings read alike, the source gives them in different places.

Tests used:
SUDHL5 cells [1] = experiment: Induction of caspase-3/7 activity (Caspase-Glo 3/7), SUDHL5; assay type: cell-based; conditions: EC50, median, SUDHL5, 3 h treatment
Summary of the method: (§1)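 Caspase-3/7 activation measured by Caspase-Glo 3/7 after a 3 h compound exposure of diffuse large B-cell lymphoma cells at 37 °C. Values corrected by subtracting the medium-only background.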

SUDHL10 cells [2] = experiment: Induction of caspase-3/7 activity (Caspase-Glo 3/7), SUDHL10; assay type: cell-based; conditions: EC50, median, SUDHL10, 3 h treatment
Summary of the method: as §1

SUDHL5 cells [3] = experiment: Antiproliferation assay (CellTiter-Glo, 72 h), SUDHL5; assay type: cell-based; conditions: IC50, median, SUDHL5, 72 h, read-out: Antiproli SUDHL5 [M] (median)
Summary of the method: (§2)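 A reference plate measured at day 0 set the time-zero baseline. Treated plates were read by CellTiter-Glo luminescence after 72 h of compound exposure at 37°C in a humidified incubator.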

AMO-1 cells = experiment: Antiproliferation assay (CellTiter-Glo, 72 h), AMO-1; assay type: cell-based; conditions: IC50, median, AMO-1, 72 h, read-out: Antiproli AMO-1 [M] median
Summary of the method: as §2

HMC-1-8 cells = experiment: Antiproliferation assay (CellTiter-Glo, 72 h), HMC-1-8; assay type: cell-based; conditions: IC50, median, HMC-1-8, 72 h, read-out: Antiproli HMC-1-8 [M] median
Summary of the method: as §2

SUDHL5 cells [4] = experiment: Induction of cytotoxicity (CellTiter-Glo, 5 h), SUDHL5; conditions: SUDHL5, 5 h
SUDHL10 cells [5] = experiment: Induction of cytotoxicity (CellTiter-Glo, 5 h), SUDHL10; conditions: SUDHL10, 5 h
[6] = Homo sapiens, SU-DHL-5, 5 h, read-out: Cytotox SUDHL5 [M] (median), IC50, median
[7] = Homo sapiens, SU-DHL10, 5 h, read-out: Cytotox SUDHL10 [M] (median), IC50, median

Row | EC50 (SUDHL5 cells [1]; Homo sapiens, SU-DHL-5, 3 h) [nM] | EC50 (SUDHL10 cells [2]; Homo sapiens, SU-DHL10, 3 h) [nM] | IC50 (SUDHL5 cells [3]; Homo sapiens, SU-DHL-5, 72 h) [M] | SMILES | IC50 (AMO-1 cells; Homo sapiens, AMO1, 72 h) [M] | IC50 (HMC-1-8 cells; 72 h) [M] | IC50 (SUDHL5 cells [4]; [6]) [M] | IC50 (SUDHL10 cells [5]; [7]) [M] | further results
1 | 160 | 1400 | 7.8e-07 | CCc1c2c(nn1C)CCCN(C)CCn1c(C(=O)O)c(CCCOc3cccc4cc(F)ccc34)c3ccc(Cl)c-2c31 (racemic) [Example 115, (rac)-4-chloro-3-ethyl-7-{3-[(6-fluoronaphthalen-1-yl)oxy]propyl}-2,12-dimethyl-10,11,12,13,14,15-hexahydro-2H-pyrazolo[3′,4′:8,9][1,4]diazacycloundecino[10,11,1-hi]indole-8-carboxylic acid] | 9.1e-07 | 8e-06 | 4.4e-07 | 1.4e-06 | 
2 |  |  |  | CCc1c2c(nn1C)CCCN(CC(F)F)CCn1c(C(=O)O)c(CCCOc3cccc4cc(F)ccc34)c3ccc(Cl)c-2c31 (racemic) [Example 118, (rac)-4-chloro-12-(2,2-difluoroethyl)-3-ethyl-7-{3-[(6-fluoro-1-naphthyl)oxy]propyl}-2-methyl-10,11,12,13,14,15-hexahydro-2H-pyrazolo[3′,4′:8,9][1,4]diazacycloundecino[10,11,1-hi]indole-8-carboxylic acid] | 5.1e-07 |  |  |  | EC50 (SUDHL5 cells [1]): 330 nM; EC50 (SUDHL10 cells [2]): 510 nM; IC50 (SUDHL5 cells [3]): 5.5e-07 M; IC50 (HMC-1-8 cells): 2.5e-06 M; IC50 (SUDHL5 cells [4]; read-out: Cytotox SUDHL5 [M] (median), IC50, median): 5.5e-07 M; IC50 (SUDHL10 cells [5]; read-out: Cytotox SUDHL10 [M] (median), IC50, median): 6.4e-07 M
3 | 920 | 750 | 6.8e-07 | CCc1c2c(nn1C)CCCN(CCCCO)CCn1c(C(=O)O)c(CCCOc3cccc4cc(F)ccc34)c3ccc(Cl)c-2c31 (racemic) [Example 122, (rac)-4-chloro-3-ethyl-7-{3-[(6-fluoro-1-naphthyl)oxy]propyl}-12-(4-hydroxybutyl)-2-methyl-10,11,12,13,14,15-hexahydro-2H-pyrazolo[3′,4′:8,9][1,4]diazacycloundecino[10,11,1-hi]indole-8-carboxylic acid] | 5.1e-07 | 6.6e-06 | 1.1e-06 | 1.1e-06 | 
4 | 470 | 1100 | 2.2e-06 | CCc1c2c(nn1C)CCCN(CC(F)(F)C(F)F)CCn1c(C(=O)O)c(CCCOc3cccc4cc(F)ccc34)c3ccc(Cl)c-2c31 (racemic) [Example 123, (rac)-4-chloro-3-ethyl-7-{3-[(6-fluoro-1-naphthyl)oxy]propyl}-2-methyl-12-(2,2,3,3-tetrafluoropropyl)-10,11,12,13,14,15-hexahydro-2H-pyrazolo[3′,4′:8,9][1,4]diazacycloundecino[10,11,1-hi]indole-8-carboxylic acid] | 7.7e-07 | 3.1e-06 | 6.6e-07 | 1.2e-06 | 
5 | 420 | 720 | 8.8e-07 | CCc1c2c(nn1C)CN(C)CC(F)(F)CCn1c(C(=O)O)c(CCCOc3cccc4cc(F)ccc34)c3ccc(Cl)c-2c31 (racemic) [Example 126, (rac)-4-Chloro-3-ethyl-12,12-difluoro-7-{3-[(6-fluoro-1-naphthyl)oxy]propyl}-2,14-dimethyl-10,11,12,13,14,15-hexahydro-2H-pyrazolo[3′,4′:8,9][1,6]diazacycloundecino[10,11,1-hi]indol-14-ium-8-carboxylate] | 3.7e-07 | 2.2e-06 | 5e-07 | 8.7e-07 | 
6 | 300 | 740 | 4.5e-07 | CCc1c2c(nn1C)CN(C)CCC(F)(F)Cn1c(C(=O)O)c(CCCOc3cccc4cc(F)ccc34)c3ccc(Cl)c-2c31 (racemic) [Example 129, (rac)-4-chloro-3-ethyl-11,11-difluoro-7-{3-[(6-fluoronaphthalen-1-yl)oxy]propyl}-2,14-dimethyl-10,11,12,13,14,15-hexahydro-2H-pyrazolo[3′,4′:8,9][1,6]diazacycloundecino[10,11,1-hi]indole-8-carboxylic acid] | 8.3e-07 | 5.2e-06 | 3.3e-07 | 8.9e-07 | 
7 |  |  |  | Cc1c2c(nn1C)COCC1CC1Cn1c(C(=O)O)c(CCCOc3cccc4ccccc34)c3ccc(Cl)c-2c31 (single isomer, unassigned) [Example 83, 3-chloro-4,5-dimethyl-14-{3-[(naphthalen-1-yl)oxy]propyl}-5,7,9a,10,10a,11-hexahydro-9H-cyclopropa[3,4]pyrazolo[4′,3′:9,10][1,6]oxazacycloundecino[8,7,6-hi]indole-13-carboxylic acid] |  | 7.4e-06 |  |  | EC50 (SUDHL5 cells [1]; listed as 083): 220 nM; EC50 (SUDHL10 cells [2]; listed as 083): 410 nM; IC50 (SUDHL5 cells [3]; listed as 083): 5.2e-07 M; IC50 (AMO-1 cells; listed as 083): 3.8e-07 M; IC50 (SUDHL5 cells [4]; read-out: Cytotox SUDHL5 [M] (median), IC50, median, listed as 083): 5.8e-07 M; IC50 (SUDHL10 cells [5]; read-out: Cytotox SUDHL10 [M] (median), IC50, median, listed as 083): 5.9e-07 M
8 |  | 320 |  | CCc1c2c(nn1C)COCC(F)(F)CCn1c(C(=O)O)c(CCCOc3cccc4cc(F)ccc34)c3ccc(Cl)c-2c31 (single isomer, unassigned) [Example 85, (−)-4-chloro-3-ethyl-12,12-difluoro-7-{3-[(6-fluoronaphthalen-1-yl)oxy]propyl}-2-methyl-2,10,11,12,13,15-hexahydropyrazolo[4′,3′:9,10][1,6]oxazacycloundecino[8,7,6-hi]indole-8-carboxylic acid] |  | 3.3e-06 |  | 9.8e-07 | EC50 (SUDHL5 cells [1]; listed as 085): 180 nM; IC50 (SUDHL5 cells [3]; listed as 085): 3.6e-07 M; IC50 (AMO-1 cells; listed as 085): 4.9e-07 M; IC50 (SUDHL5 cells [4]; read-out: Cytotox SUDHL5 [M] (median), IC50, median, listed as 085): 3e-07 M
9 | 280 | 590 | 8.2e-07 | Cc1c2c(nn1C)COCC(F)(F)CCn1c(C(=O)O)c(CCCOc3cccc4cc(F)ccc34)c3ccc(Cl)c-2c31 (single isomer, unassigned) [Example 92, 4-chloro-12,12-difluoro-7-{3-[(6-fluoronaphthalen-1-yl)oxy]propyl}-2,3-dimethyl-2,10,11,12,13,15-hexahydropyrazolo[4′,3′:9,10][1,6]oxazacycloundecino[8,7,6-hi]indole-8-carboxylic acid] | 5.4e-07 | 6.8e-06 | 3.4e-07 | 8.1e-07 | 
10 |  |  |  | CCc1c2c(nn1C)COCCC(F)(F)Cn1c(C(=O)O)c(CCCOc3cccc4cc(F)ccc34)c3ccc(Cl)c-2c31 (single isomer, unassigned) [Example 97, (−)-4-chloro-3-ethyl-11,11-difluoro-7-{3-[(6-fluoronaphthalen-1-yl)oxy]propyl}-2-methyl-2,10,11,12,13,15-hexahydropyrazolo[4′,3′:9,10][1,6]oxazacycloundecino[8,7,6-hi]indole-8-carboxylic acid] |  |  |  |  | EC50 (SUDHL5 cells [1]; listed as 097): 320 nM; EC50 (SUDHL10 cells [2]; listed as 097): 450 nM; IC50 (SUDHL5 cells [3]; listed as 097): 5.5e-07 M; IC50 (AMO-1 cells; listed as 097): 2.2e-07 M; IC50 (HMC-1-8 cells; listed as 097): 2.2e-06 M; IC50 (SUDHL5 cells [4]; read-out: Cytotox SUDHL5 [M] (median), IC50, median, listed as 097): 4.4e-07 M; IC50 (SUDHL10 cells [5]; read-out: Cytotox SUDHL10 [M] (median), IC50, median, listed as 097): 4.2e-07 M

Row | SMILES | EC50 (SUDHL5 cells [1]; Homo sapiens, SU-DHL-5, 3 h) [nM] | EC50 (SUDHL10 cells [2]; Homo sapiens, SU-DHL10, 3 h) [nM] | IC50 (SUDHL5 cells [3]; Homo sapiens, SU-DHL-5, 72 h) [M] | IC50 (AMO-1 cells; Homo sapiens, AMO1, 72 h) [M] | IC50 (HMC-1-8 cells; 72 h) [M] | IC50 (SUDHL5 cells [4]; [6]) [M] | IC50 (SUDHL10 cells [5]; [7]) [M] | further results
11 | CCc1c2c(nn1C)CCCN(CCCCOC(C)=O)CCn1c(C(=O)O)c(CCCOc3cccc4cc(F)ccc34)c3ccc(Cl)c-2c31 (racemic) [Example 121, (rac)-12-(4-acetoxybutyl)-4-chloro-3-ethyl-7-{3-[(6-fluoro-1-naphthyl)oxy]propyl}-2-methyl-10,11,12,13,14,15-hexahydro-2H-pyrazolo[3′,4′:8,9][1,4]diazacycloundecino[10,11,1-hi]indole-8-carboxylic acid] | 1200 | 1700 | 9e-07 | 1.3e-06 | 9.9e-06 | 1.3e-06 | 1.9e-06 | 
